Assay results as given in US20210238169A1, “PROCESS FOR PREPARING A COMPOUND OF FORMULA (XIII)” (PULMOCIDE LIMITED, priority 2014, published 2021).

Tests used:
[1] = test system: Aspergillus fumigatus (ATCC 13073); experiment: IL-6 and TNFα levels in serum of Aspergillus fumigatus infected mice; type: in vivo
Experimental: (§1) Aspergillus fumigatus (ATCC 13073 [strain: NIH 5233], American Type Culture Collection, Manassas, Va., USA) was grown on Malt agar (Nissui Pharmaceutical, Tokyo, Japan) plates for 6-7 days at RT (24±1° C.). Spores were aseptically dislodged from the agar plates and suspended in sterile distilled water with 0.05% Tween 80 and 0.1% agar. On the day of infection, spore counts were assessed by haemocytometer and the inoculum was adjusted to obtain a concentration of 1.67×10^8 spores mL^−1 of physiological saline.
(§2) On day 0, animals were infected with the spore suspension (35 μL intra-nasally).
(§3) Test compounds were administered intra-nasally ([…]) once daily, 30 min before infection on day 0 and then on days 1, 2 and 3 (representing prophylactic treatment) or on days 1, 2 and 3 only (representing therapeutic treatment). For extended prophylactic treatment, test compounds (35 μL of a suspension of 0.0032 or 0.016 mg/mL in physiological saline) were administered intra-nasally once daily for seven days; then 30 min before infection on day 0, and thereafter, either on days 1, 2 and 3 after infection, or on day 0 only. The effects of these treatment paradigms were compared with those obtained when treatment was restricted to one day and 30 min before inoculation and then on days 1, 2 and 3 post infection; or reduced still further to one day and 30 min before infection only.
(§4) Six hours after the last dose, animals were anesthetised, the trachea was cannulated and BALF was collected. The total number of alveolar cells was determined using a haemocytometer, and the numbers of alveolar macrophages and neutrophils were determined by FACS analysis (EPICS® ALTRA II, Beckman Coulter, Inc., Fullerton, Calif., USA) using anti-mouse MOMA2-FITC (macrophage) or anti-mouse 7/4 (neutrophil), respectively, as previously reported (Kimura et al., 2013). The levels of IFN-γ and IL-17 in BALF, and IL-6 and TNFα in serum were determined using Quantikine® mouse IFN-γ, IL-17, IL-6 or TNF-α ELISA kit (R&D systems, Inc., Minneapolis, Minn., USA) respectively. MDA, an oxidative stress marker, was assayed using OxiSelect® TBARS Assay Kits (MDA Quantitation; Cell Biolabs Inc, San Diego, Calif., USA). Aspergillus GM in serum was determination using Platelia GM-EIA kits (Bio-Rad Laboratories, Redmond, Wash., USA). Cut-off index was calculated by the formula: Cut-off index=OD in sample/OD in cut-off control provided in kit. For tissue fungal load assays, 100 mg of lung tissue was removed aseptically and homogenized in 0.2 mL of 0.1% agar in sterile distilled water. Serially diluted lung homogenates were plated on Malt agar plates (50 μL/plate), and incubated at 24±1° C. for 72 to 96 h. The colonies of A. fumigatus on each plate was counted and the fungal titre presented as CFU per gram of lung tissue.

[2] = test system: Aspergillus fumigatus (ATCC 13073); experiment: Macrophage and neutrophil accumulation into BALF of Aspergillus fumigatus infected mice; type: in vivo
Experimental: as §1, §2, §3, §4

[3] = Prophylactic Treatment, 0.08 mg/mL intra-nasally
[4] = Prophylactic Treatment, 0.4 mg/mL intra-nasally
[5] = Prophylactic Treatment, 2 mg/mL intra-nasally
[6] = Therapeutic Treatment, 0.4 mg/mL intra-nasally
[7] = Therapeutic Treatment, 2 mg/mL intra-nasally
[8] = Therapeutic Treatment, 10 mg/mL intra-nasally

Cc1cc(N2CCN(c3ccc(C(=O)Nc4ccc(F)cc4)cc3)CC2)ccc1OC[C@@H]1CO[C@@](Cn2cncn2)(c2ccc(F)cc2F)C1 [Compound (I), 4-(4-(4-(((3R,5R)-5-((1H-1,2,4-triazol-1-yl)methyl)-5-(2,4-difluorophenyl)tetrahydrofuran-3-yl)methoxy)-3-methylphenyl)piperazin-1-yl)-N-(4-fluorophenyl)benzamide]
IL-6 concentration in serum [1, 3]: 159 ± 73.3 pg/mL
IL-6 in serum, % Inhibition [1, 3]: 44%
TNFα concentration in serum [1, 3]: 11.8 ± 5.9 pg/mL
TNFα in serum, % Inhibition [1, 3]: 54%
IL-6 concentration in serum [1, 4]: 86.3 ± 46.9 pg/mL
IL-6 in serum, % Inhibition [1, 4]: 70%
TNFα concentration in serum [1, 4]: 7.3 ± 3.5 pg/mL
TNFα in serum, % Inhibition [1, 4]: 71%
IL-6 concentration in serum [1, 5]: 44.5 ± 12.2 pg/mL
IL-6 in serum, % Inhibition [1, 5]: 84%
TNFα concentration in serum [1, 5]: 4.7 ± 0.4 pg/mL
TNFα in serum, % Inhibition [1, 5]: 82%
IL-6 concentration in serum [1, 6]: 51.7 ± 16.8 pg/mL
IL-6 in serum, % Inhibition [1, 6]: 82%
TNFα concentration in serum [1, 6]: 6.2 ± 0.5 pg/mL
TNFα in serum, % Inhibition [1, 6]: 76%
IL-6 concentration in serum [1, 7]: 44.2 ± 11.4 pg/mL
IL-6 in serum, % Inhibition [1, 7]: 84%
TNFα concentration in serum [1, 7]: 5.5 ± 0.7 pg/mL
TNFα in serum, % Inhibition [1, 7]: 79%
IL-6 concentration in serum [1, 8]: 35.9 ± 10.4 pg/mL
IL-6 in serum, % Inhibition [1, 8]: 87%
TNFα concentration in serum [1, 8]: 4.9 ± 0.6 pg/mL
TNFα in serum, % Inhibition [1, 8]: 81%
Macrophage cell numbers in BAL [2, 3]: 0.40 ± 0.15 × 10^5/mL
Macrophage cell numbers in BAL, % inhibition [2, 3]: 38%
Neutrophil cell numbers in BAL [2, 3]: 0.37 ± 0.04 × 10^5/mL
Neutrophil cell numbers in BAL, % inhibition [2, 3]: 24%
Macrophage cell numbers in BAL [2, 4]: 0.32 ± 0.07 × 10^5/mL
Macrophage cell numbers in BAL, % inhibition [2, 4]: 51%
Neutrophil cell numbers in BAL [2, 4]: 0.26 ± 0.12 × 10^5/mL
Neutrophil cell numbers in BAL, % inhibition [2, 4]: 47%
Macrophage cell numbers in BAL [2, 5]: 0.26 ± 0.05 × 10^5/mL
Macrophage cell numbers in BAL, % inhibition [2, 5]: 60%
Neutrophil cell numbers in BAL [2, 5]: 0.22 ± 0.04 × 10^5/mL
Neutrophil cell numbers in BAL, % inhibition [2, 5]: 55%
Macrophage cell numbers in BAL [2, 6]: 0.43 ± 0.05 × 10^5/mL
Macrophage cell numbers in BAL, % inhibition [2, 6]: 34%
Neutrophil cell numbers in BAL [2, 6]: 0.38 ± 0.04 × 10^5/mL
Neutrophil cell numbers in BAL, % inhibition [2, 6]: 22%
Macrophage cell numbers in BAL [2, 7]: 0.40 ± 0.11 × 10^5/mL
Macrophage cell numbers in BAL, % inhibition [2, 7]: 38%
Neutrophil cell numbers in BAL [2, 7]: 0.34 ± 0.05 × 10^5/mL
Neutrophil cell numbers in BAL, % inhibition [2, 7]: 31%
Macrophage cell numbers in BAL [2, 8]: 0.32 ± 0.07 × 10^5/mL
Macrophage cell numbers in BAL, % inhibition [2, 8]: 51%
Neutrophil cell numbers in BAL [2, 8]: 0.27 ± 0.08 × 10^5/mL
Neutrophil cell numbers in BAL, % inhibition [2, 8]: 45%
